In US20250341522A1, “Treatment Strategies for Pancreatic Cancer Using Recombinant Acid Sphingomyelinase” (University of Cincinnati, priority 2024, published 2025):
Blank lines part the entries; values can stand above or below the compound they belong to.

Legend:
[1] = target: T1, SLC66A1 (Mus musculus, UniProt Q8C4N4); assay: Binding of [14C]sphingomyelin to immunoprecipitated SLC66A1
T1 construct: SLC66A1 was immunoprecipitated from 40×10^6 splenocytes, after lysis in RIPA-buffer+aprotinin/leupeptin; endogenous in cells; host or cells: splenocytes (immunoprecipitate on protein A/G agarose)
T1 sequence (Q8C4N4 1-293): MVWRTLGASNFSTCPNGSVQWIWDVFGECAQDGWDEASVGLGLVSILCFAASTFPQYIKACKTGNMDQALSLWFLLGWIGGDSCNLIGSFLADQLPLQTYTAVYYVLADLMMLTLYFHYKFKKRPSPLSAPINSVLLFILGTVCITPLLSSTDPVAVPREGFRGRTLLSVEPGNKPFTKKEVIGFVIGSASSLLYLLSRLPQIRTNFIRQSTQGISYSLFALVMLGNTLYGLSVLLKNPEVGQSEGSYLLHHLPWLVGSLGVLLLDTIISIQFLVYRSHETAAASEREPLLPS
Procedure: FIG. 7A is a graph showing the binding of [^14C]sphingomyelin (SM), [^14C]ceramide (Cer), and [^14C]sphingosine (SPH) in the absence or presence of the VMLTLYFYY peptide.
(§1) The lysosomal arginine transporter SLC66A1 contains a VMLTLYFYY motif. A study was conducted to investigate whether SLC66A binds to sphingomyelin. […] Additionally, efflux of arginine was markedly higher in lysosomes of splenic myeloid cells isolated from wt tumors than in cells from control mice and absent in ASM-tr cells (FIG. 7B).
FIG. 7A is a graph showing SLC66A1 was immunoprecipitated from 40×10^6 splenocytes, after lysis in RIPA-buffer+aprotinin/leupeptin. Immunocomplexes were immobilized on protein A/G agarose, washed 3-times in RIPA buffer and twice in PBS+0.1% Triton X100, resuspended in the same buffer and binding of [^14C]sphingomyelin (SM), [^14C]ceramide (Cer), or [^14C]sphingosine (SPH) was measured in the absence or presence of the VMLTLYFYY peptide.

[2] = system: lysosomal arginine transport; assay: Efflux of arginine from isolated lysosomes of Ly6G-sorted splenocytes; type: biochemical, mice; conditions: lysosomes of wt cells treated with sphingomyelin
Procedure: FIG. 7B is a graph showing the results of isolated lysosomes from Ly6G-sorted splenocytes obtained from mice with or without PDAC being loaded with [^14C]arginine and the efflux of [3H]arginine being determined. Aliquots of the lysosomes were treated with sphingomyelin.
as §1
FIG. 7B is a graph showing isolated lysosomes from Ly6G-sorted splenocytes obtained from mice with or without PDAC were loaded with [^14C]arginine and the efflux of [3H]arginine was determined. Aliquots of the lysosomes were treated with sphingomyelin. Mean±SD; n=6-8; ***p<0.001 ANOVA.

[3] = target: T2, ASM (Mus musculus, UniProt Q04519); assay: Incubation of ex vivo splenocytes, Ly6G-sorted myeloid cells or J774 macrophages with polyamines: ASM activity and sphingomyelin; type: cell-based, mice; conditions: agmatine 5 μM, 8 hr
T2 construct: endogenous in cells; host or cells: ex vivo mouse splenocytes, Ly6G-sorted myeloid cells, J774 macrophages
T2 sequence (Q04519 45-627): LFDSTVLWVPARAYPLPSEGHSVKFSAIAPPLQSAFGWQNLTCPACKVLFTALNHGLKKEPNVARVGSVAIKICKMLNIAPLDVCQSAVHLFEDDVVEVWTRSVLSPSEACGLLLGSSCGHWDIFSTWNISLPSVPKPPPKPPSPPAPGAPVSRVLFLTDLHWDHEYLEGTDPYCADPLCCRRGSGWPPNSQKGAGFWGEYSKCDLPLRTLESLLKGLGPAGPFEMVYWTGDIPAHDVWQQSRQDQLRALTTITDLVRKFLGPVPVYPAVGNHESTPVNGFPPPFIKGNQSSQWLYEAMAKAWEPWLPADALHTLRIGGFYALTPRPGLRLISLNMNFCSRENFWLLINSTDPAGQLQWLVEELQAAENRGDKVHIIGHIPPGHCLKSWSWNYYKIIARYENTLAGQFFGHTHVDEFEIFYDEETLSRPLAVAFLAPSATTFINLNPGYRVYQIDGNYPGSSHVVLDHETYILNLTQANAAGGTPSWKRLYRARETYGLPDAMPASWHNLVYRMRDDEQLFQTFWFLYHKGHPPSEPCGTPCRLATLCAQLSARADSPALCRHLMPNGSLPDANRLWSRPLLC
Procedure: FIG. 9A is a graph showing the concentration of polyamines in the blood plasma of wt or ASM-tr mice determined by ELISA. FIG. 9B is a graph showing the activity of ASM for splenocytes that were isolated from wt or ASM-tr mice and stimulated for 8 hr with 5 μM agmatine (Agm), 100 μM spermine (Sp), or 100 μM spermidine (Spd). FIG. 9C is a graph showing the concentrations of sphingomyelin for splenocytes that were isolated from wt or ASM-tr mice and stimulated for 8 hr with 5 μM agmatine (Agm), 100 μM spermine (Sp), or 100 μM spermidine (Spd). The activity of ASM and the concentrations of sphingomyelin were determined by an enzyme assay or ELISA. Mean±SD; n=6-8; **p<0.01, ***p<0.001 ANOVA.
An increase of Arg-1 and ADC expression may also increase polyamine concentrations. […]
FIG. 10 is a graph showing ASM activity (A) and levels of sphingomyelin (B), Arg-1 (C), and ADC (D) were determined in macrophages (J774 cell line) or in stable ASM-transfected J774 (with an approximately 3-fold overexpression of ASM) at baseline, after treatment with agmatine (Agm, 5 μM), spermine (Sp, 100 μM), or spermidine (Spd, 100 μM), supernatant (Sup) from KPC cells, and supernatant immunodepleted (id) of polyamines. ASM activity was measured by determining the consumption of [^14C]sphingomyelin, Sphingomyelin-, Arginase-1- and ADC-levels were quantified by ELISA. […]

[4] = system: KPC-PDAC cells; assay: Tumor development and survival of wildtype and ASM-transgenic mice after i.p. injection of KPC-PDAC cells, gemcitabine treatment (Example 4, FIG. 5); type: in vivo; conditions: for response of tumors to treatment: i.p. KPC-PDAC cells
Procedure: FIG. 5 is a graph showing the survival of wildtype and ASM-transgenic mice after i.p. injection of 25,000 KPC cells. Treatment of ASM-transgenic (tr) mice with gemcitabine rescued 100% of the mice from tumor growth. n=12 each group.
An experiment was conducted to determine if acid sphingomyelinase overexpression prevents tumor growth. Based on the clinical data, the effects of ASM overexpression and tumor growth were evaluated.

[5] = system: Pan02 pancreas cancer cells; assay: Orthotopic pancreatic cancer murine model (Pan02), tumor size 15 days after injection; type: in vivo; conditions: wildtype mice, amitriptyline 10 mg/kg i.p. every other day, 15 days after tumor initiation, vs vehicle
Procedure: The wildtype mice were randomly divided into 2 groups treated with antidepressant (amitriptyline 10 mg/kg, i.p. injected every 2nd day) or vehicle, i.e. 0.9% NaCl. The size of the pancreas cancer was determined 15 days after tumor initiation.
FIG. 4 is a graph showing a growth of PDAC in murine models of orthotopic pancreatic ductal adenocarcinoma. Wildtype mice were injected orthotopically into the pancreas with […] Pan02 pancreas cancer cells and either left untreated or treated with amitriptyline at 10 mg/kg every other day via IP injection starting at day 4 after tumor injection. In addition, we injected acid sphingomyelinase-deficient littermates with Pan02 pancreas cancer cells orthotopically into the pancreas. Tumor size was determined 15 days after injection. Shown are the mean±SD of the tumor size from each n=4-5 mice per group; *p<0.05, ANOVA with Tukey post hoc test.
All animal experiments were approved by the University of Cincinnati Ethic Committee and the Institutional Animal Care and Use Committee. Eight-week-old, wild type male, C57BL/6J mice were purchased from Jackson Labs (000664, Jackson Labs, USA). Acid sphingomyelinase-deficient mice (Smpd1−/−) were bred and genotyped at the animal facility of the University of Cincinnati. […] The size of the pancreas cancer was determined in all groups 15 days after tumor initiation.

[6] = system: isolated immune cells from tumors in wt mice; assay: Anti-CD3-mediated IL-2 and INFγ formation in isolated immune cells from tumor wt mice; type: cell-based; conditions: arginine added to isolated immune cells from tumors in wt mice
Excerpt: Further, it was confirmed that sphingomyelin caused upregulation of Arg-1 and ADC and the concomitant reduction of arginine concentrations results in immune inhibition. Confirmation was accomplished by the finding that anti-CD3-mediated IL-2 and INFγ-formation, as well as cytotoxicity toward KPC cells, is lower in splenocytes isolated from wt mice injected with PDAC than in splenocytes from ASM-tr mice (FIG. 8E).

- binding to SLC66A1 ([1]; immunoprecipitation from splenocytes, [14C]sphingomyelin): direct and specific binding
Compound: sphingomyelin
- efflux of arginine from lysosomes [2]: strongly activated

Compound: N=C(N)NCCCCN [agmatine]
- ASM activity [3]: inhibited ASM activity
- cellular sphingomyelin concentrations [3]: increased cellular sphingomyelin concentrations

- binding of sphingomyelin to SLC66A1 in the presence of peptide ([1]; excess synthetic peptide): almost abrogated
Compound: VMLTLYFYY [VMLTLYFYY peptide]

Compound: Nc1ccn([C@@H]2O[C@H](CO)[C@@H](O)C2(F)F)c(=O)n1 [gemcitabine]
- response of tumors to treatment ([4]; ASM-tr mice, low dose of gemcitabine): completely eradicate the tumors
- mice rescued from tumor growth ([4]; ASM-transgenic mice, 25,000 KPC cells i.p., n=12): 100%
- response of tumors to treatment ([4]; wt mice): resistant

Compound: CN(C)CCC=C1c2ccccc2CCc2ccccc21 [amitriptyline]
- tumor growth (tumor size) [5]: increased tumor growth

Compound: N=C(N)NCCC[C@H](N)C(=O)O [arginine]
- CD3-mediated formation of IL-2 and INFγ [6]: restored
